Measurements reported in patent publication US20070059720A9 (priority 2004, published 2007).

Experiments:
ERα = experiment: Immunoblot of phospho-S118 ERα and total ERα in MCF-7 transfectants; assay type: cell-based, human; conditions: for total ERα protein level: control transfected and MKP3 overexpressing cells
Protocol: Cells grown in 100 mm dishes were starved in phenol red-free (PRF), serum-free MEM (Specialty Media, Phillipsburg, N.J.) for 48 hours, and were then treated for 2 hours with vehicle (ethanol), estrogen (100 nM, 20), or OHT (100 nM). After treatment, cells were rinsed twice with ice-cold phosphate-buffered saline (PBS) and were then lysed immediately with 200 μl of cell lysis buffer (20 mM Tris HCl, pH 7.4, 150 mM NaCl, 1 mM B-glycerophosphate, 1 mM sodium orthovanadate, and 10% glycerol plus 1:100 proteinase inhibitor cocktail III) (Calbiochem, LaJolla, Calif.) per 100 mm tissue culture. The cell lysates were cleared by centrifugation at 16,100×g for 10 minutes at 4° C. Protein concentration was determined with the BCA Protein Assay kit (Pierce, Rockfold, Ill.) according to the manufacturer's directions. Equal amount of cell extracts were resolved under denaturing conditions by electrophoresis in 8-10% polyacrylamide gels containing sodium dodecyl sulfate (SDS-PAGE), and transferred to nitrocellulose membranes by electroblotting (Schleicher & Schuell, Keene, NH). After blocking of the transferred nitrocellulose membrane with TBST (20 mM Tris pH 7.6, 150 mM NaCl, 0.1% Tween-20) supplemented with 5% non-fat milk for 1 hour at room temperature, the membrane was incubated with primary antibodies either for 1 hour at room temperature (anti-ERα, 1:100 dilution; anti-AIB1, 1:100 dilution; anti-ERK2, 1:500 dilution; anti-Cyclin D1,1:500 dilution; anti-PR, C-19, 1:200 dilution; anti-p190, 1:1000 dilution; anti-V5, 1:5000 dilution), or overnight at 4° C. (anti-phospho MAPK, 1:1000 dilution; anti-phosphor-Ser118-ERα; 1:1000 dilution; MAPK p42/44, 1:1000 dilution), incubated with secondary antibodies for 1 hour at room temperature and then developed with Enhanced Chemiluminescence Reagents (Amersham Pharmacia Biotech, Piscataway, N.J.).

MKP3 = target: T1, MKP3 (Homo sapiens, UniProt Q16828); experiment: Phosphatase assay with pNPP on V5 immunoprecipitates of treated MKP3 cells; assay type: biochemical; conditions: MKP3 transfectants treated 2 hours; relative to control-treated (intermediate)
T1 construct: expressed in transfected cells
T1 sequence (Q16828 1-381): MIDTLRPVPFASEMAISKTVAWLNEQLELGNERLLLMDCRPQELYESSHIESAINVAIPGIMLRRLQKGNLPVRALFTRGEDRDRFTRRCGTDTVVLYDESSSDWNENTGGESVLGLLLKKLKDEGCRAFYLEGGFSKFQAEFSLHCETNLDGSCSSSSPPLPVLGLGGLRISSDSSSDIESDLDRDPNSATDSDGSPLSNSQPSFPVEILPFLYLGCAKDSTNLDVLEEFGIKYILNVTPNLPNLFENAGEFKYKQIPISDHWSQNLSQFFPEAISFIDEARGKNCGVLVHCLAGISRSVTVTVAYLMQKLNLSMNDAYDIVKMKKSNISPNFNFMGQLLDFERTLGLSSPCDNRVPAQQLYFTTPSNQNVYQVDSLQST
Protocol: MKP3-overexpressing cells and control vector transfected cells were treated as described above with ethanol, E2, or 4-OH-Tam, and lysed in buffer B containing 20 mM Tris-HCl (pH 7.0), 150 mM NaCl, 1% Triton X-100, 0.25 M sucrose, 1 mM EDTA, 1 mM EGTA, 0.1% β-mercaptoethanol, 1 mM PMSF, and 1 μg/ml leupeptin. The cell lysates were cleared and the protein concentrations were determined as detailed above. 300 μg of cell lysate at 1 μg/μl was immunoprecipitated by the addition of 1 μg anti-V5 antiserum, and 20 μl 50% protein G slurry. […] The reactions were then quenched by the addition of 20 μl 5N NaOH, and pNPP hydrolysis was measured at 405 nm. […] The amount of product p-nitrophenol was determined from the absorbance at 405 nm. […]
The observed changes in pMAPK levels in MKP3 overexpressing cells was further characterized. […] Using the artificial substrate pNPP to measure endogenous phosphatase activity, there was an inverse relationship between measured phosphatase activity and pMAPK levels in the MKP3 transfectants. […] There were no observed changes in the ability of MKP3 to bind to MAPK, as measured by co-immunoprecipitation and immunoblot analysis (FIG. 5H). When the levels of MKP3-bound ERK2 were compared between the different hormonal treatments, no differences were detected (C, E, T, IP:V5 lanes). […]

SMILES: C[C@]12CC[C@@H]3c4ccc(O)cc4CC[C@H]3[C@@H]1CC[C@@H]2O [E2, 17β-Estradiol]
- total ERα protein level (ERα): Down regulation
- MKP3 phosphatase activity (pNPP hydrolysis) (MKP3): highest

SMILES: CC/C(=C(\c1ccccc1)c1ccc(OCCN(C)C)cc1)c1ccccc1 [Tam, tamoxifen]
- phosphorylation at ERα serine 118 (ERα; MKP3 transfectants, 2 hours): highly induced
- total ERα protein level (ERα): stabilization
- MKP3 phosphatase activity (pNPP hydrolysis) (MKP3): lowest
